We go through three compounds from patent US8288374B2, “Medicinal composition containing benzo[a]phenoxazine compound as the active ingredient for prevention or treatment of protozoal disease” (Hoshi University, priority 2008, dated 2012).

Holding throughout (type): cell-based
One assay relates to Plasmodium falciparum K1. Description: Chloroquine resistant-Plasmodium falciparum growth inhibition screening test. To be noted: for Selective toxicity: EC50 against rat L6 cells / EC50 against P. falciparum K1; for EC50: Plasmodium falciparum, Table 2, unit inferred, chloroquine-resistant K1 strain, read-out: P. falciparum K1. On the procedure:
In the present experiment, protozoa of plasmodium falsiparum K1 strain was used. RPMI-1640 medium sterilized with a filter to which human serum was added to be 5%, was used in the experiment. Malarial parasites were cultured under 3% O2 concentration, 4% CO2 concentration, 93% N2 concentration, and at a temperature of 37° C.
The compounds of the present invention to be used in the present test and the positive control drug (chloroquine) were dissolved in DMSO to make a test solution of a predetermined concentration. Cultured malaria parasite infected-erythrocytes were collected by centrifugation, and diluted with non-infected erythrocyte so that the early infection rate was 0.15%. Hematocrit level at that time was 2.5%.
200 μL of malaria infected solution was added to wells of a 96-well culture plate, and adjusted by adding a test solution containing drug of a predetermined concentration or a drug-free DMSO. Test solutions were taken by duplicates.
[…] […] Radiation intensity was measured with a beta plate liquid scintillation counter (Wallac), and malarial parasite infection rates of the test solution added group and the control group were calculated.
Growth inhibition rate (%)={1−(b−a)/(c−a)}×100 • a: early infection rate • b: infection rate when test solution was added • c: infection rate of the control 3. Growth Inhibition Test of Rat L6 Cells
Antimalarial activity of a sample was estimated from EC50 values of the sample against chloroquine resistant-Plasmodium falciparum and rat L6 cells. […] It means that the larger the value of the selection toxity, the less the risk of the side effect is. Chemotherapy index=(EC50 value of a sample against rat L6 cells)/(EC50 value of a sample against chloroquine resistant-Plasmodium falsiparum)

The subject of assay [1] is Trypanosoma brucei rhodesiense (STIB 900 strain). The experiment in a line: African trypanosome protozoa growth inhibition screening test. On the procedure: In the present experiment, protozoa of Tripanosoma brucei rhodensiense (STIB 900 Strain), a trypomastigote living in blood stream, was used. The medium used in the experiment was a MEM medium which was sterilized with a filter and supplemented with 25 mM N-2-hydroxyeihylpiperazine-2-ethansulfonic acid (HEPES), 1 g/L glucose, 1% MEM non-essential amino acid, 0.2 mM 2-mercaptoethanol, 2 mM sodium pyruvate, 0.1 mM hypoxanthine, and 15% heat-treated horse serum. The protozoa was cultured in an atmosphere of CO2 concentration 5%, at a temperature of 37° C.
The compounds of the present invention to be used in the present test and the positive control drug (melarsoprol) were dissolved in dimethylsulfoxide (DMSO) to make a test solution of a predetermined concentration.
A medium containing 8×10^3 protozoa, and a test solution containing a drug of a predetermined concentration of a drug-free DMSO were added to wells of a 96-well culture plate, and subsequently, medium was added so that the amount in each well becomes 100 μL. Test solutions were taken by duplicates.
After culturing the culture plate for 72 hours in an incubator, growth inhibition activity was tested. Test was conducted as follows. 10 μL of Alamar Blue aqueous solution was added to each well, and the resultant was further cultured for 2 hours. Next, the culture plate was placed on a fluorescent micro-plate reader (Spectramax Gemeni XS; US Molecular Device), radiated at an excited wavelength of 536 nm. Fluorescent intensity was measured at 588 nm, to calculate the trypanosome protozoa infected rate of the test solution added-group, and of the control group.
(§1) Growth inhibition rate (%)={1−(b−a)/(c−a)}×100 • a: early infection rate • b: infection rate when test solution was added • c: infection rate of the control

In assay [2] the test system is Leishmania donovani (MHOM/ET/67/L82 strain). The experiment in a line: Leishmania protozoa growth inhibition screening test. On the procedure: In the present experiment, Leishmania donovani (MHOM/ET/67/L82 strain) was used. Protozoa was subcultured in Syrian Golden hamster, from which an amastigote was obtained. In the experiment, SM medium supplemented with 10% heat-treated bovine fetal serum was used, which was adjusted to pH 5.4, and cultured in an atmosphere of 5% CO2 concentration, at 37° C.
The compounds of the present invention to be used in the present test and the positive control drug (miltefosine) were dissolved in DMSO to make a test solution of a predetermined concentration.
After adding a medium containing a predetermined number of protozoa to wells of a 96-well culture'plate and pre-treating, concentration of the amastigote was measured with CASY cell analysis system (Scharfe, Germany). Then, test solution containing a drug of a predetermined concentration or a drug-free DMSO was added. Test solutions were taken by duplicates.
After culturing the culture plate for 72 hours in an incubator, growth inhibition activity was tested. Test was conducted as follows. 10 μL of Alamar Blue aqueous solution was added to each well, and the resultant was further cultured for 2 hours. Next, the culture plate was placed on a fluorescent micro-plate reader (Spectramax Gemeni XS; US Molecular Device), radiated at an excited wavelength of 536 nm. Fluorescent intensity was measured at 588 nm, and infection rate of leishmania protozoa of the test solution added group and control was calculated.
as §1

The mark [3] stands for this setting: Table 6, unit inferred, read-out: Trypanosoma brucei rhod.
Where [4] appears, read: Table 6, unit inferred, read-out: Leishmania donovani.

SMILES strings stand for the structures. Converted amounts (≈) assume the structure as drawn. Read-outs that look alike come from different tables or passages of the source.

In the case of `CCN(CC)c1ccc2nc3c4ccccc4c(=Nc4ccc5ccccc5n4)cc-3oc2c1` [Compound 1H, N,N-Diethyl-5-(quinolin-2-ylimino)-5H-benzo[a]phenoxazin-9-amine], the Selective toxicity with Plasmodium falciparum K1 was found to be 2513. Also, the EC50 in assay [1] (Table 5, 72 hours, Alamar Blue, read-out: 50% Growth inhibition concentration Trypanosoma brucei rhod.) is 4.6 µg/mL (≈ 10.3 µM); in assay [2] (Leishmania donovani, Table 5, amastigotes, 72 hours, Alamar Blue, read-out: 50% Growth inhibition concentration Leishmania donovani) it was 1.25 µg/mL (≈ 2.81 µM).
`CCN(CCNS(C)(=O)=O)c1cc(C)c2nc3c4ccccc4c(=Nc4ccncc4)cc-3oc2c1` [Compound 1R, N-Ethyl-N-(2-methansulfonamidylethyl)-11-methyl-5-(pyridine-4-ylimino)-5H-benzo[a]phenoxazin-9-amine] showed a Selective toxicity in the assay on Plasmodium falciparum K1 of 885. For the same compound, the values for the EC50 (in the assay on Plasmodium falciparum K1; in assay [1] (setting [3]); in assay [2] (setting [4])) were 9 ng/mL (≈ 0.0179 µM), 5.34 µg/mL (≈ 10.7 µM) and 3.92 µg/mL (≈ 7.81 µM), respectively.
The matching figures for `CCN(CCNS(C)(=O)=O)c1cc(C)c2nc3c4ccccc4c(=Nc4ccccn4)cc-3oc2c1` [Compound 1S, N-Ethyl-N-(2-methansulfonamidylethyl)-11-methyl-5-(pyridine-2-ylimino)-5H-benzo[a]phenoxazin-9-amine]: 43, 7 ng/mL (≈ 0.014 µM), 0.714 µg/mL (≈ 1.42 µM) and 2.09 µg/mL (≈ 4.17 µM).
